Patent US20220008445A1, “METHODS, COMPOSITIONS, AND KITS FOR TREATING OCULAR DISEASES” (ELOXX PHARMACEUTICALS, priority 2018, published 2022)

What was measured:
[1] = test system: nonsense mutation R262X in the Oca2 gene; experiment: Read-through after intravitreal injection in albino mice (melanin production); assay type: in vivo, SJL/J mice; settings: for melanin production in the eye: intravitreal injection, FIGS. 20-21; for in vivo read-through as compared to gentamicin: injection to the posterior segment (back of eye)
Procedure: Read-through activity following intravitreal injection of aminoglycosides was evaluated in animal models.
Albino mice (SJL/J mice) harbor the nonsense mutation R262X in the Oca2 gene resulting in an absence of melanin production in melanocytes. This model provides an initial evaluation of compound availability to the back of the eye when administered by intravitreal injection—higher concentrations of melanin correspond to greater read-through activity.
NB122, NB124, NB124-MeS, NB84, NB118, NB127, NB128, and NB157 were evaluated for read-through activity following intravitreal injection into SJL/J mice. FIGS. 20-21 show intravitreal read-through for each compound relative to gentamicin.

USH2A mutation R626X = experiment: Plasmid-based dual-luciferase read-through assay in HeLa cells, USH2A; assay type: cell-based; settings: for read-through of the USH2A mutation (in words): FIG. 7, FIG. 9; for dose-dependence of read-through induction, USH2A: FIG. 10
Procedure: (§1) An in vitro assay was then performed to determine if the same dose-dependent suppression could be achieved using other aminoglycosides. This in vitro assay utilized a plasmid-based, dual-luciferase approach. Short sequences that include Usher syndrome nonsense mutations were cloned into the linker region between Renilla and Firefly luciferase reporters, and plasmids were transiently transfected into HeLa cells to evaluate compound read-through. This model permits an early assessment of read-through potential against disease-specific mutations. Read-through activity was evaluated using USH2A and USH1F mutations.
(§2) NB122, NB124, NB84, NB127, NB118, NB128, NB124-MeS, and NB157 were evaluated for their ability to induce read-through on the USH2A mutation R626X and the USH1F PCDH15 mutation R3X.

[2] = test system: USH1F PCDH15 mutation R3X; experiment: Plasmid-based dual-luciferase read-through assay in HeLa cells, USH1F; assay type: cell-based; settings: for read-through of the USH1F mutation (in words): FIG. 8, FIG. 9; for dose-dependence of read-through induction, USH1F: FIG. 11
Procedure: as §1, §2

retina [3] = settings: have been reported; cited from earlier work
retina [4] = settings: for tolerability in gross ophthalmological examination and ERG compared to gentamicin: in vivo
Procedure: Biocompatibility and pharmacokinetic/pharmacodynamic profiles were evaluated for the aminoglycosides NB30, NB54/Compound 37, NB84/ELX-03, NB122/ELX-01, NB124/ELX-02, NB127/ELX-04, NB118/ELX-05, and NB128/ELX-06 in patient-derived cell lines and rodent animal models.
NB122 was well-tolerated compared to gentamicin in gross ophthalmological examination and ERG when administered by intravitreal injection.

[5] = test system: healthy New Zealand white rabbits; experiment: Single-dose intravitreal tolerability, ERG and histology; assay type: in vivo
Procedure: Biocompatibility and pharmacokinetic/pharmacodynamic profiles were then evaluated for intravitreal injection of NB118 versus gentamicin. Single-dose tolerability was screened in healthy New Zealand white rabbits and evaluated based on ERG and histology. Dark-adapted oscillatory potential and photopic b-wave amplitudes were measured pre- and nine-days post a single 300 μg or 600 μg injection of aminoglycoside as shown in FIG. 2.
Results were confirmed by a veterinary pathologist.

[6] = test system: R213X nonsense mutation in human TP53; experiment: Protein Based Read-through Assay in DMS114 cells; assay type: cell-based; settings: Western blot and immunofluorescence
Procedure: Protein Based Read-through Assay. NB122, NB124, NB84, NB118, and NB128 were evaluated for their protein-based read-through potential in DMS114 cells, which harbor a native R213X nonsense mutation in human TP53 as depicted in the scheme shown in FIG. 12. […] A high-throughput immunofluorescence assay measuring p53 localized at the nucleus is shown in FIG. 15 with dose-dependence studies for NB84. Lastly, FIG. 16 provides full dose response curves for NB122, NB124, NB84, NB118, and NB128 with the error bars representing a standard deviation (SD).

[7] = test system: USH1C nonsense mutation R155X; experiment: Usher protein expression, USH1C nonsense mutation; assay type: cell-based; settings: FIG. 17
Procedure: The ability of these compounds to induce protein expression of nonsense mutations associated with Usher syndrome was evaluated using USH1C nonsense mutations.

[8] = Intravitreal pharmacokinetic profile, retina exposure; assay type: in vivo, Dutch-Belted rabbits; settings: 100 μg intravitreal
Procedure: Pharmacokinetic profiles of NB124 were evaluated using healthy Dutch-Belted rabbits. Rabbits were injected with 100 μg of NB124 and followed for 192 hours. […] Overall, the results support a favorable therapeutic index for intravitreal administration of any of NB124.

[9] = intravitreal, human; cited from earlier work
retinal cultures = experiment: Cytotoxicity in retinal cultures (staining profile); assay type: cell-based
Procedure: The cytotoxicity of NB30, NB54, NB84, NB122, NB124, and NB127 was evaluated in retinal cultures.

USH1 nonsense mutations = experiment: In vitro cell-based read-through assay in HEK293 cells; settings: greater at higher concentrations, FIG. 6A-B
From the text: In Vitro Cell-Based Assay. NB84 and NB127 were next tested in an in vitro assay using HEK293 cells to determine if similar read-through activity could be achieved in a cellular environment.

[10] = test system: USH1F nonsense mutations R3X and R245X; experiment: Cell-Free Read-through Assay; assay type: biochemical; settings: FIG. 5A-B
Procedure: Cell-Free Read-through Assay. NB84 and NB127 were evaluated for their ability to induce read-through of the USH1F nonsense mutations R3X and R245X in a cell-free assay.

[11] = nine days after single 300 μg or 600 μg intravitreal injection

| Molecule | melanin production in the eye [1] | read-through of the USH2A mutation (in words) (USH2A mutation R626X) | read-through of the USH1F mutation (in words) [2] | in vivo read-through as compared to gentamicin [1] | tolerability in gross ophthalmological examination and ERG compared to gentamicin (retina [4]) | dose-dependence of read-through induction, USH2A (USH2A mutation R626X) | nonsense mutation read-through as measured by protein expression (full length p53) [6] | dose-dependence of read-through induction, USH1F [2] | protein expression versus gentamicin and vehicle control [7] | also measured |
| --- | --- | --- | --- | --- | --- | --- | --- | --- | --- | --- |
| C[C@H](N)[C@H]1O[C@@H](O[C@@H]2C(O)[C@H](N)CC(N)[C@H]2O[C@H]2OC([C@H](O)CO)[C@@H](O)[C@H](O)C2N)C(O)[C@H]1O (stereo partly shown) [NB157] | dose-dependent increase | significant read-through | significant read-through |  |  |  |  |  |  |  |
| CN[C@@H]1[C@@H](O)[C@@H](O[C@@H]2[C@@H](O)[C@H](O[C@H]3O[C@H]([C@@H](C)O)[C@@H](O)[C@H](O)[C@H]3N)[C@@H](N)C[C@H]2N)OC[C@]1(C)O [Compound G418, G418] |  |  |  |  |  |  |  |  |  | reported retinal toxicities (retina [3]): dose-limiting retinal toxicities |
| CCCNC1CC(N)C(OC2OC(C(C)O)C(O)C(O)C2N)C(OC2OC(CN)C(O)C2O)C1O (stereo not shown) [NB147] |  |  |  | significant read-through | well-tolerated |  |  |  |  |  |
| CC(N)C1OC(OC2C(O)C(N)CC(N)C2OC2OC(CO)C(O)C(O)C2N)C(O)C1O (stereo not shown) [NB118] | dose-dependent increase | significant read-through | significant read-through | significant read-through | well-tolerated | dose-dependence | dose-dependent | dose-dependence |  | anatomic changes in retina, H&E stained sections ([5]; rabbit, in vivo): did not produce adverse anatomic changes; impact on ERG amplitudes or implicit times ([5]; rabbit, in vivo): minimal to no impact; in vivo ocular tolerance, intravitreal doses (retina [4]): up to 600 μg/mL |
| CC(N)C1OC(OC2C(O)C(NC(=O)C(O)CCN)CC(N)C2OC2OC(CO)C(O)C(O)C2N)C(O)C1O (stereo not shown) [NB122] | dose-dependent increase |  |  | significant read-through | well-tolerated | dose-dependence | dose-dependent | dose-dependence | increased protein expression | in vivo ocular tolerance, intravitreal doses (retina [4]): up to 600 μg/mL; R3X read-through rate ([2]; R3X): 2.7%; increase over native read-through ([2]; R3X): 2.5 fold |
| C[C@H](N)[C@H]1O[C@@H](O[C@@H]2[C@@H](O)[C@H](N)C[C@H](N)[C@H]2O[C@H]2O[C@H]([C@@H](C)O)[C@@H](O)[C@H](O)[C@H]2N)[C@H](O)[C@@H]1O [NB124] | dose-dependent increase |  |  | significant read-through | well-tolerated | dose-dependence | dose-dependent | dose-dependence | increased protein expression | time for which retina exposure covers the compound's IC50 [8]: over 48 hours; time of peak retina exposure ([8]; followed for 192 hours): 3 h |
| gentamicin [reference compound] |  |  |  |  |  |  |  |  |  | dark-adapted oscillatory potential peaks (ERG) [5, 11]: ablation; photopic b-wave potentials (ERG) [5, 11]: moderate reduction; melanin ([1]; 0.2 μg intravitreal, t-test vs. vehicle control): increases melanin; dose at which toxicity observed ([1]; intravitreal, pilot study FIG. 19): 0.5 µg; half-life [9]: 40 to 60 h; reported retinal toxicities (retina [3]): dose-limiting retinal toxicities |
| CC(N)C1OC(OC2C(O)C(NC(=O)C(O)CCN)CC(N)C2OC2OC(C(C)O)C(O)C(O)C2N)C(O)C1O (stereo not shown) [NB128] | dose-dependent increase | significant read-through | significant read-through | significant read-through | well-tolerated | dose-dependence | dose-dependent | dose-dependence |  |  |
| NCC[C@H](O)C(=O)N[C@@H]1CC(N)[C@@H](O[C@H]2OC(CO)[C@@H](O)[C@H](O)C2N)[C@H](O[C@@H]2O[C@H](CN)[C@H](O)C2O)C1O (stereo partly shown) [NB54] |  |  |  |  |  |  |  |  |  | staining profile versus untreated retinal cultures (retinal cultures): did not significantly differ |
| CC(N)C1OC(OC2C(O)C(NS(C)(=O)=O)CC(N)C2OC2OC(C(C)O)C(O)C(O)C2N)C(O)C1O (stereo not shown) [NB124-MeS] | dose-dependent increase | significant read-through | significant read-through | significant read-through | well-tolerated |  |  |  |  |  |
| CC(N)C1OC(OC2C(O)C(NC(=O)C(O)CCN)CC(N)C2OC2OC(C(C)O)C(O)C(O)C2N)C(O)C1O (stereo not shown) [NB127] | dose-dependent increase | significant read-through | significant read-through | significant read-through | well-tolerated |  |  |  | increased protein expression | read-through in cells (USH1 nonsense mutations): significant read-through; read-through as compared to G418 and gentamicin [10]: significant read-through |
| C[C@@H](O)C1O[C@H](O[C@@H]2C(N)C[C@@H](NC(=O)[C@@H](O)CCN)[C@@H](O)C2O[C@@H]2O[C@H](CN)[C@H](O)C2O)[C@@H](N)C(O)[C@@H]1O (stereo partly shown) [NB84] | dose-dependent increase | significant read-through | significant read-through | significant read-through | well-tolerated | dose-dependence | dose-dependent | dose-dependence | increased protein expression | read-through in cells (USH1 nonsense mutations): significant read-through; in vivo ocular tolerance, intravitreal doses (retina [4]): up to 600 μg/mL; read-through as compared to G418 and gentamicin [10]: significant read-through |
